Where two headings read alike, the source gives them in different places.
Tested on: patients of the REDUCE-IT and earlier EPA placebo-controlled trials
Type: in vivo, human
Conditions: R-I
[1] = Bilirubin shift: normal to high (Day 120)
[2] = Bilirubin shift: normal to high (Day 360)
[3] = Bilirubin shift: normal to high (Day 720)
[4] = Bilirubin shift: normal to high (Day 1080)
[5] = Bilirubin shift: normal to high (Day 1440)
[6] = Bilirubin shift: normal to high (Day 1800)

## CC/C=C\C/C=C\C/C=C\C/C=C\C/C=C\CCCC(=O)OCC [icosapent ethyl, eicosapentaenoic acid ethyl ester]
  Risk Ratio (95% CI): ALP shift: normal to high (Day 1080): 0.395 (0.280 to 0.528) 4
  Risk Ratio (95% CI): ALP shift: normal to high (Day 1440): 0.406 (0.287 to 0.575) 3
  Risk Ratio (95% CI): ALP shift: normal to high (Day 1800): 0.439 (0.280 to 0.688) 3
  Risk Ratio (95% CI): ALP shift: normal to low (Day 120): 3.341 (1.343 to 8.311) −4
  Risk Ratio (95% CI): ALP shift: normal to low (Day 360): 2.394 (0.994 to 5.767) −3
  Risk Ratio (95% CI): ALP shift: normal to low (Day 720): 2.783 (1.178 to 6.572) −4
  Risk Ratio (95% CI): ALP shift: normal to low (Day 1080): 1.938 (0.831 to 4.522) −3
  Risk Ratio (95% CI): ALP shift: normal to low (Day 1440): 1.199 (0.562 to 2.556) −1
  Risk Ratio (95% CI): Albumin high (Day 120): 2.263 (1.388 to 3.689) −3
  Risk Ratio (95% CI): Albumin high (Day 360): 1.901 (1.217 to 2.969) −3
  Risk Ratio (95% CI): Albumin high (Day 720): 1.365 (0.975 to 1.911) −2
  Risk Ratio (95% CI): Albumin high (Day 1080): 1.449 (0.993 to 2.115) −2
  Risk Ratio (95% CI): Albumin high (Day 1440): 1.540 (1.001 to 2.369) −2
  Risk Ratio (95% CI): Albumin shift: normal to high (Day 120): 3.055 (1.709 to 5.461) −4
  Risk Ratio (95% CI): Albumin shift: normal to high (Day 360): 2.364 (1.388 to 4.027) −3
  Risk Ratio (95% CI): Albumin shift: normal to high (Day 720): 1.475 (1.028 to 2.116) −2
  Risk Ratio (95% CI): Albumin shift: normal to high (Day 1080): 1.257 (0.848 to 1.864) −2
  Risk Ratio (95% CI): Albumin shift: normal to high (Day 1440): 1.531 (0.974 to 2.408) −2
  Risk Ratio (95% CI): Bilirubin >1x ULN to 2x ULN: 3.157 (2.392 to 4.168) −4
  Risk Ratio (95% CI): Bilirubin high (Day 120): 4.288 (2.849 to 6.454) −4
  Risk Ratio (95% CI): Bilirubin high (Day 360): 3.263 (2.203 to 4.832) −4
  Risk Ratio (95% CI): Bilirubin high (Day 720): 5.052 (3.174 to 8.039) −5
  Risk Ratio (95% CI): Bilirubin high (Day 1080): 2.430 (1.683 to 3.508) −3
  Risk Ratio (95% CI): Bilirubin high (Day 1440): 3.543 (2.243 to 5.596) −4
  Risk Ratio (95% CI): Bilirubin high (Day 1800): 2.670 (1.569 to 4.545) −4
  Risk Ratio (95% CI): Bilirubin shift: normal to high (Day 120): 5.106 (2.754 to 9.467) −5
  Risk Ratio (95% CI): Bilirubin shift: normal to high (Day 360): 5.431 (2.773 to 10.636) −5
  Risk Ratio (95% CI): Bilirubin shift: normal to high (Day 720): 4.803 (2.516 to 9.168) −4
  Risk Ratio (95% CI): Bilirubin shift: normal to high (Day 1080): 2.235 (1.374 to 3.636) −3
  Risk Ratio (95% CI): Bilirubin shift: normal to high (Day 1440): 5.445 (2.687 to 11.034) −5
  Risk Ratio (95% CI): Bilirubin shift: normal to high (Day 1800): 2.556 (1.242 to 5.259) −4
  Risk Ratio (95% CI): Calcium high (Day 120): 0.799 (0.517 to 1.236) 2
  Risk Ratio (95% CI): Calcium high (Day 360): 0.915 (0.593 to 1.412) 1
  Risk Ratio (95% CI): Calcium high (Day 720): 0.767 (0.491 to 1.200) 2
  Risk Ratio (95% CI): Calcium low (Day 120): 1.399 (0.444 to 4.404) −2
  Risk Ratio (95% CI): Calcium low (Day 360): 9.856 (1.262 to 76.953) −5
  Risk Ratio (95% CI): Calcium low (Day 720): 2.911 (0.789 to 10.744) −4
  Risk Ratio (95% CI): DBP High (≥100 mmHg): 1.121 (0.931 to 1.350) −1
  Risk Ratio (95% CI): DBP High and Rose ≥10 mmHg: 1.092 (0.888 to 1.344) −1
  Risk Ratio (95% CI): DBP Low (≤50 mmHG): 1.136 (0.732 to 1.763) −1
  Risk Ratio (95% CI): DBP Low and dropped ≥10 mmHg: 1.030 (0.644 to 1.648) −1
  Risk Ratio (95% CI): DBP dropped ≥10 mmHG: 1.087 (1.028 to 1.150) −1
  Risk Ratio (95% CI): DBP rose ≥10 mmHg: 0.983 (0.927 to 1.041) 1
  Risk Ratio (95% CI): High platelets (Day 720): 1.503 (1.007 to 2.242) −2
  Risk Ratio (95% CI): Low platelets (Day 360): 0.366 (0.253 to 0.530) 4
  Risk Ratio (95% CI): Low platelets (Day 720): 0.799 (0.608 to 1.051) 2
  Risk Ratio (95% CI): Low platelets (Day 1080): 0.688 (0.512 to 0.925) 2
  Risk Ratio (95% CI): Platelet count: PCS Low <100 × 10^3/uL: 0.442 (0.258 to 0.758) 3
  Risk Ratio (95% CI): SBP High (≥160 mmHg): 0.912 (0.833 to 1.000) 1
  Risk Ratio (95% CI): SBP High and rose ≥20 mmHg: 0.908 (0.805 to 1.023) 1
  Risk Ratio (95% CI): SBP Low (≤90 mmHg): 1.819 (1.093 to 3.055) −3
  Risk Ratio (95% CI): SBP dropped ≥20 mmHg: 1.117 (1.033 to 1.208) −1
  Risk Ratio (95% CI): SBP low and dropped ≥20 mmHg: 1.422 (0.792 to 2.553) −2
  Risk Ratio (95% CI): SBP rose ≥20 mmHg: 0.976 (0.912 to 1.045) 1
  Risk Ratio (95% CI): Urate high (Day 120): 1.398 (1.246 to 1.568) −2
  Risk Ratio (95% CI): Urate high (Day 360): 1.350 (1.197 to 1.523) −2
  Risk Ratio (95% CI): Urate high (Day 720): 1.323 (1.162 to 1.506) −2
  Risk Ratio (95% CI): Urate high (Day 1080): 1.102 (0.961 to 1.263) −1
  Risk Ratio (95% CI): Urate high (Day 1440): 1.109 (0.956 to 1.286) −1
  Risk Ratio (95% CI): Urate high (Day 1800): 1.084 (0.883 to 1.331) −1
  Risk Ratio (95% CI): Urate shift: normal to high (Day 120): 1.689 (1.369 to 2.084) −3
  Risk Ratio (95% CI): Urate shift: normal to high (Day 360): 1.674 (1.363 to 2.056) −3
  Risk Ratio (95% CI): Urate shift: normal to high (Day 720): 1.513 (1.227 to 1.865) −2
  Risk Ratio (95% CI): Urate shift: normal to high (Day 1080): 1.118 (0.910 to 1.374) −1
  Risk Ratio (95% CI): Urate shift: normal to high (Day 1440): 1.079 (0.879 to 1.324) −1
  Risk Ratio (95% CI): Urate shift: normal to high (Day 1800): 1.029 (0.782 to 1.355) −1
  Risk Ratio (95% CI): Urate shift: normal to low (Day 120): 1.654 (0.396 to 6.915) −2
  Risk Ratio (95% CI): Urate shift: normal to low (Day 360): 0.733 (0.255 to 2.110) 2
  Risk Ratio (95% CI): Urate shift: normal to low (Day 720): 0.361 (0.096 to 1.360) 4
  Risk Ratio (95% CI): Urate shift: normal to low (Day 1080): 0.474 (0.119 to 1.893) 3
  Risk Ratio (95% CI): Urate shift: normal to low (Day 1440): 0.210 (0.046 to 0.973) 4
  Risk Ratio (95% CI): Uric acid PCS High >7.5 mg/dL (Women): 1.180 (0.974 to 1.429) −1
  Risk Ratio (95% CI): Uric acid PCS High >8.0 mg/dL (Men): 1.313 (1.183 to 1.458) −2
  Risk Ratio (95% CI): Uric acid PCS Low <1.9 mg/dL (Women): 1.000 (0.063 to 15.986) −1
  Risk Ratio (95% CI): Uric acid PCS Low <2.5 mg/dL (Men): 0.650 (0.324 to 1.305) 2
Bilirubin >1x ULN to 2x ULN
  ARR: 3.5%
  NNT: −29
  Risk Ratio (95% CI): 3.157 (2.392 to 4.168) −4
Bilirubin >2x ULN to 3x ULN
  ARR: 0.2%
  NNT: −497
  Risk Ratio (95% CI): 3.668 (1.024 to 13.136) −4
Bilirubin high (Day 120)
  ARR: 2.4%
  NNT: −42
  Risk Ratio (95% CI): 4.288 (2.849 to 6.454) −4
Bilirubin high (Day 360)
  ARR: 2.0%
  NNT: −50
  Risk Ratio (95% CI): 3.263 (2.203 to 4.832) −4
Bilirubin high (Day 720)
  ARR: 2.6%
  NNT: −38
  Risk Ratio (95% CI): 5.052 (3.174 to 8.039) −5
Bilirubin high (Day 1080)
  ARR: 2.0%
  NNT: −50
  Risk Ratio (95% CI): 2.430 (1.683 to 3.508) −3
Bilirubin high (Day 1440)
  ARR: 2.5%
  NNT: −40
  Risk Ratio (95% CI): 3.543 (2.243 to 5.596) −4
Bilirubin high (Day 1800)
  ARR: 2.3%
  NNT: −43
  Risk Ratio (95% CI): 2.670 (1.569 to 4.545) −4
[1]
  ARR: 1.3%
  NNT: −77
  Risk Ratio (95% CI): 5.106 (2.754 to 9.467) −5
[2]
  ARR: 1.3%
  NNT: −80
  Risk Ratio (95% CI): 5.431 (2.773 to 10.636) −5
[3]
  ARR: 1.3%
  NNT: −76
  Risk Ratio (95% CI): 4.803 (2.516 to 9.168) −4
[4]
  ARR: 1.0%
  NNT: −95
  Risk Ratio (95% CI): 2.235 (1.374 to 3.636) −3
[5]
  ARR: 1.8%
  NNT: −57
  Risk Ratio (95% CI): 5.445 (2.687 to 11.034) −5
[6]
  ARR: 1.2%
  NNT: −81
  Risk Ratio (95% CI): 2.556 (1.242 to 5.259) −4
Erythrocytes (Day 120)
  Placebo-Adjusted % Change: +.72%
Erythrocytes (Day 360)
  Placebo-Adjusted % Change: +.26%
Erythrocytes (Day 720)
  Placebo-Adjusted % Change: +.29%
Erythrocytes (Day 1080)
  Placebo-Adjusted % Change: +.43%
Erythrocytes (Day 1440)
  Placebo-Adjusted % Change: +.66%
Erythrocytes low (Day 120)
  ARR: −1.3%
  NNT: 77
  Risk Ratio (95% CI): 0.814 (0.685 to 0.968) 1
Erythrocytes low (Day 360)
  ARR: −0.4%
  NNT: 223
  Risk Ratio (95% CI): 0.932 (0.781 to 1.113) 1
Erythrocytes low (Day 720)
  ARR: −0.4%
  NNT: 251
  Risk Ratio (95% CI): 0.940 (0.779 to 1.133) 1
Erythrocytes low (Day 1080)
  ARR: −1.7%
  NNT: 60
  Risk Ratio (95% CI): 0.781 (0.642 to 0.950) 2
Erythrocytes low (Day 1440)
  ARR: −0.8%
  NNT: 120
  Risk Ratio (95% CI): 0.888 (0.720 to 1.093) 1
Erythrocytes low (Day 1800)
  ARR: −0.2%
  NNT: 485
  Risk Ratio (95% CI): 0.975 (0.756 to 1.258) 1
Hematocrit (Day 120)
  Placebo-Adjusted % Change: +.42%

Source: patent publication US20210308089A1, “METHODS OF TREATING AND/OR PREVENTING VIRAL INFECTIONS AND/OR DISEASES CAUSED BY VIRUSES IN A SUBJECT IN NEED THEREOF” (priority 2020, published 2021)
